The text below walks through data of the supplement of paper PMC6045584.

± gives the standard deviation of the averaged measurements.

Compound in one experiment: C#Cc1cccc(Nc2ncnc3cc(OCCOC)c(OCCOC)cc23)c1 [ERLOTINIB]
In words: surviving fraction relative to DMSO-only wells; higher = less growth inhibition. Conditions: exposure time: 5 days. In a few lines:
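For each tumour cell line, log-phase cells were put into 384-well plates at 250–500 cells per well, then after 24 hours exposed continuously for five days to inhibitors at 0.5, 1, 5, 10, 50, 100, 500 and 1000 nM. Viability was assessed by CellTiter-Glo luminescence, with surviving fraction expressed relative to the median of DMSO-only wells. Lines were screened three times and retained only if replicate Pearson r exceeded 0.7 and median Z' exceeded 0.3.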

Compound in a further experiment: O=C(O)CC[C@H]1CC[C@@](c2cc(F)ccc2F)(S(=O)(=O)c2ccc(Cl)cc2)CC1 [MK0752]
In words: area under dose-response curve of surviving fraction (unscaled, Aref=0) (surviving fraction x log10(nM)); higher = more resistant. The settings on record: exposure time: 5 days; dose range 0.5-1000 nM. In a few lines:
(§1)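 Three screens per tumour cell line were run in 384-well plates at eight inhibitor concentrations from 0.5 to 1000 nM over five days. Surviving fractions, from CellTiter-Glo luminescence normalised to DMSO-only wells, were fitted with 3-parameter logistic curves in the drc R package. The reported area under the curve is the unscaled activity area. It spans log10 dose, and Aref is 0.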

Compound in another experiment: CCN(CC)CCNC(=O)c1c(C)[nH]c(/C=C2\C(=O)Nc3ccc(F)cc32)c1C [SUNITINIB]
The description is as above. The settings on record: exposure time: 5 days; dose range 0.5-1000 nM. In short, it runs like this:
as §1

Turning to C33A CERVIX, the surviving fraction worked out at 1.06 ± 0.03 with ERLOTINIB (5 nM); 1.14 ± 0.019 in the experiment with ERLOTINIB (10 nM); 1.06 ± 0.077 with ERLOTINIB (50 nM); 1.08 ± 0.029 with ERLOTINIB (100 nM); 0.819 ± 0.052 in the experiment with ERLOTINIB (500 nM); 0.655 ± 0.031 with ERLOTINIB (1000 nM). Besides, the “area under dose-response curve” value with MK0752 stood at 3.7.

Turning to CAL72 BONE, the surviving fraction with ERLOTINIB (5 nM) came to 1.05 ± 0.1; with ERLOTINIB (100 nM), 1.1 ± 0.083; with ERLOTINIB (500 nM), 1.06 ± 0.084; with ERLOTINIB (1000 nM) it was 1.07 ± 0.058. In addition, the “area under dose-response curve” value with MK0752 worked out at 3.63.

G292 BONE: the surviving fraction in the experiment with ERLOTINIB (5 nM) is 1.03 ± 0.051; in the experiment with ERLOTINIB (10 nM) it was 1.06 ± 0.018; with ERLOTINIB (50 nM) it was 1.05 ± 0.038; with ERLOTINIB (100 nM) it was 1.07 ± 0.033; with ERLOTINIB (500 nM) it was 0.979 ± 0.019; with ERLOTINIB (1000 nM), 1.07 ± 0.092. For the same test system, the “area under dose-response curve” value in the experiment with SUNITINIB came out at 2.82; with MK0752, 3.19.

On to HCC1395 BREAST, for which the surviving fraction in the experiment with ERLOTINIB (1 nM) was determined as 0.992 ± 0.02; with ERLOTINIB (5 nM), 1.33 ± 0.036; in the experiment with ERLOTINIB (10 nM), 1.18 ± 0.14; in the experiment with ERLOTINIB (100 nM), 1.28 ± 0.027; with ERLOTINIB (500 nM) it was 1.14 ± 0.042; in the experiment with ERLOTINIB (1000 nM) it was 1.19 ± 0.051. Besides, the “area under dose-response curve” value with SUNITINIB is 3.19; in the experiment with MK0752, 3.51.

For HUO3N1 BONE, the surviving fraction with ERLOTINIB (10 nM) was determined as 1.117 ± 0.0084; in the experiment with ERLOTINIB (50 nM), 1.13 ± 0.025; with ERLOTINIB (100 nM), 1.1 ± 0.018; with ERLOTINIB (500 nM) it was 1.02 ± 0.025; with ERLOTINIB (1000 nM) it was 1.02 ± 0.038. In addition, the “area under dose-response curve” value in the experiment with SUNITINIB is 2.62.

With LNCAP PROSTATE, the surviving fraction with ERLOTINIB (5 nM) was determined as 0.956 ± 0.032; in the experiment with ERLOTINIB (10 nM), 0.892 ± 0.053; in the experiment with ERLOTINIB (50 nM), 0.947 ± 0.1; with ERLOTINIB (100 nM), 1.02 ± 0.054; in the experiment with ERLOTINIB (1000 nM), 0.967 ± 0.028. Further, the “area under dose-response curve” value with MK0752 was 3.22.

Turning to SCC003 HEADNECK, the surviving fraction was determined as 1.13 ± 0.045 in the experiment with ERLOTINIB (5 nM); 1.06 ± 0.11 in the experiment with ERLOTINIB (10 nM); 0.997 ± 0.091 with ERLOTINIB (50 nM); 1.04 ± 0.051 in the experiment with ERLOTINIB (100 nM); 0.702 ± 0.024 in the experiment with ERLOTINIB (500 nM); 0.552 ± 0.038 with ERLOTINIB (1000 nM). In addition, in the experiment with SUNITINIB, the “area under dose-response curve” value turned out to be 2.83.
